Measured values as given in patent publication US9957267B2, “Somatostatin modulators and uses thereof” (Crinetics Pharmaceuticals, Inc., priority 2015, dated 2018).

What was measured:
Assay type in all cases: cell-based
[1] = biological target: T1, human somatostatin receptor subtype 2a (Homo sapiens, UniProt P30874); experiment: cAMP assay for SSTR2a agonists (HTRF cAMP kit, NKH-477 stimulated); conditions: CHO cells stably expressing human SSTR2a, 1.6 μM NKH-477
T1 construct: expressed in transfected cells
T1 sequence (P30874 whole entry): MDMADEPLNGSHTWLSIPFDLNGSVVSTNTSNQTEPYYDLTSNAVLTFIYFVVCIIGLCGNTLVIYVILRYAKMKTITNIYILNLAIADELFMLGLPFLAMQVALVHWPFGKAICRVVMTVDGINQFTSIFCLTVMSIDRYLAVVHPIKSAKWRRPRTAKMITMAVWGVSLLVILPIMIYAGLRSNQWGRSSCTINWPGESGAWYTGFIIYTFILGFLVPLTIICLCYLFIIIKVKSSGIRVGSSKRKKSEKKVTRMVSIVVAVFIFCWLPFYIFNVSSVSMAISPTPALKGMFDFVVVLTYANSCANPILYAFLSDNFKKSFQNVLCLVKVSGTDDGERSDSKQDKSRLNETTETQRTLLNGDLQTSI

[2] = biological target: T2, SSTR1 (Homo sapiens, UniProt P30872); experiment: cAMP functional agonist assay, CHO cells expressing SSTR1; conditions: CHO cells stably expressing SSTR1, cAMP; read-out: SSTR1 EC50
T2 construct: expressed in transfected cells
T2 sequence (P30872 whole entry): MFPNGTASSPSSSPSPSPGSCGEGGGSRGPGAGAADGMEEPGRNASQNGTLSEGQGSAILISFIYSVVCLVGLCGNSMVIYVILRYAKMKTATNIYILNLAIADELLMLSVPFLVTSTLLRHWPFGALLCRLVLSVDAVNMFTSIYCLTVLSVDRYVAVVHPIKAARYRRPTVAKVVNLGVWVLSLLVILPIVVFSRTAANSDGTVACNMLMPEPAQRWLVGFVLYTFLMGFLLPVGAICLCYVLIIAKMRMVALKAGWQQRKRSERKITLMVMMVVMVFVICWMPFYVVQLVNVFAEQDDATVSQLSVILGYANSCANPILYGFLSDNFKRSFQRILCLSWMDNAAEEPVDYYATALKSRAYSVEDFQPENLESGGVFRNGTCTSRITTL
How it was run: (§1)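 CHO cells stably expressing the human or rodent somatostatin receptor subtype. Agonism measured as decrease in intracellular cAMP via Gi coupling.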

[3] = biological target: SSTR3 (UniProt P32745); experiment: cAMP functional agonist assay, CHO cells expressing SSTR3; conditions: CHO cells stably expressing SSTR3, cAMP
Chain of SSTR3 (P32745 whole entry): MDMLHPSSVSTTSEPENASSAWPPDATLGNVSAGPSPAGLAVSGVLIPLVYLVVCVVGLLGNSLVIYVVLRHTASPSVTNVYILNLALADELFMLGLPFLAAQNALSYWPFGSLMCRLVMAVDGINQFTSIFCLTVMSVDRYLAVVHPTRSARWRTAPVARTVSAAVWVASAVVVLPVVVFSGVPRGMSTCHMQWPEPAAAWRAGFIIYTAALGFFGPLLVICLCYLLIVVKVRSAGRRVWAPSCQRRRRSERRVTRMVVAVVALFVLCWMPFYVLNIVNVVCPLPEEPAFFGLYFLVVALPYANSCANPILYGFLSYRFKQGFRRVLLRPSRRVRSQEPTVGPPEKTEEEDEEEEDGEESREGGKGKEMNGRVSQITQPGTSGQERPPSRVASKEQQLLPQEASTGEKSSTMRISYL
How it was run: (§2)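 CHO cells stably expressing a single somatostatin receptor subtype, grown to 85–100% confluence in F12-Ham's with 10% donor calf serum and hygromycin. Agonism assessed as a decrease in intracellular cAMP via Gi coupling.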

[4] = biological target: T3, SSTR4 (Homo sapiens, UniProt P31391); experiment: cAMP functional agonist assay, CHO cells expressing SSTR4; conditions: CHO cells stably expressing SSTR4, cAMP; read-out: SSTR4 EC50
T3 construct: expressed in transfected cells
T3 sequence (P31391 whole entry): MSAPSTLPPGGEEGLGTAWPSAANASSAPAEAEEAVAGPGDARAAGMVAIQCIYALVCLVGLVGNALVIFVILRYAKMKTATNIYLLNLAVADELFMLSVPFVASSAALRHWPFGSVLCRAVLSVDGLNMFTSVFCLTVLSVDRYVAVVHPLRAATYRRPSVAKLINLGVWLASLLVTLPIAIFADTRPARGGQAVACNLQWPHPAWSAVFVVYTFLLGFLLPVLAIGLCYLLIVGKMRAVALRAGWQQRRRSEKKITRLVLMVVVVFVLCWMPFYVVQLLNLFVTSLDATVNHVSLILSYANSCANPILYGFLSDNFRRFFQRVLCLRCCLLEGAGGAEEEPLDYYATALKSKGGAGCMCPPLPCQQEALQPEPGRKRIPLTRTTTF
How it was run: as §1

[5] = biological target: T4, SSTR5 (Homo sapiens, UniProt P35346); experiment: cAMP functional agonist assay, CHO cells expressing SSTR5; conditions: CHO cells stably expressing SSTR5, cAMP
T4 construct: expressed in transfected cells
T4 sequence (P35346 whole entry): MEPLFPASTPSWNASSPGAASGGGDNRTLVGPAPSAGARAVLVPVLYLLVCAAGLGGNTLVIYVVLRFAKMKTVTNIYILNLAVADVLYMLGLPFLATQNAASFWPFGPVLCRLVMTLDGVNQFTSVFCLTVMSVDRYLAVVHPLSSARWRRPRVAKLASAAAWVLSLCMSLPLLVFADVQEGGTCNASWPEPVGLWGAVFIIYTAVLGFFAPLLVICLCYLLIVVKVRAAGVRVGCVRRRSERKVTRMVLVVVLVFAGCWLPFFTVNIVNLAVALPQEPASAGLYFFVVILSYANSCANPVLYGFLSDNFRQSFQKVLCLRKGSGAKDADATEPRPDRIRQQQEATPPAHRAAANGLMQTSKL
How it was run: as §2

SMILES | EC50 [1] | EC50 [2] | EC50 [3] | EC50 [4] | EC50 [5]
CC[C@H](N)CN(C)Cc1c(-c2cc(C)cc(C)c2)cnc2ncn(-c3cc(O)cc(F)c3)c(=O)c12 [Compound A-62, 5-({[(2S)-2-aminobutyl](methyl)amino}methyl)-6-(3,5-dimethylphenyl)-3-(3-fluoro-5-hydroxyphenyl)-3H,4H-pyrido[2,3-d]pyrimidin-4-one] | < 100 nM | 0.1 to 10 µM | < 100 nM | < 100 nM | 0.1 to 10 µM
CCc1nc2ncc(-c3cc(C)cc(Cl)c3)c(CN(C)C[C@@H]3CCCN3)c2c(=O)n1-c1cccc(O)c1 [Compound A-57, 6-(3-chloro-5-methylphenyl)-2-ethyl-3-(3-hydroxyphenyl)-5-({methyl[(2S)-pyrrolidin-2-ylmethyl]amino}methyl)-3H,4H-pyrido[2,3-d]pyrimidin-4-one] | < 100 nM | 0.1 to 10 µM | < 100 nM | < 100 nM | 0.1 to 10 µM
Cc1cc(C)c(F)c(-c2cnc3ncn(-c4cccc(O)c4)c(=O)c3c2CN(C)CC2CCCCN2)c1 (stereo not drawn) [Compound A-70, 6-(2-Fluoro-3,5-dimethyl-phenyl)-3-(3-hydroxy-phenyl)-5-[(methyl-piperidin-2-ylmethyl-amino)-methyl]-3H-pyrido[2,3-d]pyrimidin-4-one] | < 100 nM | 0.1 to 10 µM | < 100 nM | < 100 nM | 0.1 to 10 µM
Cc1cc(Cl)cc(-c2cnc3ncn(-c4cc(O)cc(F)c4)c(=O)c3c2CN(C)C[C@@H]2CCCCN2)c1 [Compound A-28, 6-(3-chloro-5-methylphenyl)-3-(3-fluoro-5-hydroxyphenyl)-5-({methyl[(2S)-piperidin-2-ylmethyl]amino}methyl)-3H,4H-pyrido[2,3-d]pyrimidin-4-one] | < 100 nM | 0.1 to 10 µM | < 100 nM | < 100 nM | 0.1 to 10 µM

The next lines start with the values.

EC50 [1] | EC50 [2] | EC50 [3] | EC50 [4] | EC50 [5] | SMILES
< 100 nM | > 10 µM | 100 to 10000 nM | < 100 nM | > 10 µM | CN(Cc1c(-c2cccc(CCO)c2)cnc2ncn(-c3cccc(O)c3)c(=O)c12)C[C@@H]1CCCN1 [Compound A-32, 6-[3-(2-hydroxyethyl)phenyl]-3-(3-hydroxyphenyl)-5-({methyl[(2S)-pyrrolidin-2-ylmethyl]amino}methyl)-3H,4H-pyrido[2,3-d]pyrimidin-4-one]
< 100 nM | 0.1 to 10 µM | < 100 nM | < 100 nM | > 10 µM | Cc1cccc(-c2cnc3ncn(-c4cccc(O)c4)c(=O)c3c2CN(C)CC2CCCCN2)c1 (stereo not drawn) [Compound A-21, 3-(3-hydroxyphenyl)-5-{[methyl(piperidin-2-ylmethyl)amino]methyl}-6-(3-methylphenyl)-3H,4H-pyrido[2,3-d]pyrimidin-4-one]
